# Reference: patent publication US7176261B2, “Angiotensin-(1-7) eluting polymer-coated medical device to reduce restenosis and improve endothelial cell function” (Medtronic, Inc., priority 2004, dated 2007)
# Marks after values point to notes of the source that are not given here.
# Columns and labels:
# [1] = system: smooth muscle cell proliferation; settings: intravenous infusion; cited from earlier work
# [2] = system: rats with uncoated stents implanted in the abdominal aorta; test: Angiotensin-(1-7) pump study in rat aorta model (uncoated stents, micropump infusion); assay type: in vivo
# Method: The effects of Ang-(1-7) on restenosis were studied in rats with uncoated stents implanted in the abdominal aorta with Ang-(1-7) infused by implantable micro pump. Twelve rats per group were implanted with stents and micropumps containing one of three infusion regimens for three weeks. Control rats received saline infusions and the Ang-(1-7) groups received infusion of Ang-(1-7) at 10 μg/kg/hr or 24 μg/kg/hr.
# The rats receiving 24 μg/kg/hr, however, scored lower in neointimal level and percentage stenosis (Table 1 and FIG. 7). A 27% reduction in neointimal area was seen between the control rats and those receiving 24 μg/kg/hr Ang-(1-7). Ang-(1-7) has a clear beneficial effect on the restenosis rate.
# ACE = biological target: T1, ACE (Homo sapiens, UniProt P12821); settings: after six months of treatment, more than 2,000 patients; cited from earlier work
# T1 construct: host or cells: patients (in vivo, endogenous enzyme)
# T1 sequence (P12821 30-1306): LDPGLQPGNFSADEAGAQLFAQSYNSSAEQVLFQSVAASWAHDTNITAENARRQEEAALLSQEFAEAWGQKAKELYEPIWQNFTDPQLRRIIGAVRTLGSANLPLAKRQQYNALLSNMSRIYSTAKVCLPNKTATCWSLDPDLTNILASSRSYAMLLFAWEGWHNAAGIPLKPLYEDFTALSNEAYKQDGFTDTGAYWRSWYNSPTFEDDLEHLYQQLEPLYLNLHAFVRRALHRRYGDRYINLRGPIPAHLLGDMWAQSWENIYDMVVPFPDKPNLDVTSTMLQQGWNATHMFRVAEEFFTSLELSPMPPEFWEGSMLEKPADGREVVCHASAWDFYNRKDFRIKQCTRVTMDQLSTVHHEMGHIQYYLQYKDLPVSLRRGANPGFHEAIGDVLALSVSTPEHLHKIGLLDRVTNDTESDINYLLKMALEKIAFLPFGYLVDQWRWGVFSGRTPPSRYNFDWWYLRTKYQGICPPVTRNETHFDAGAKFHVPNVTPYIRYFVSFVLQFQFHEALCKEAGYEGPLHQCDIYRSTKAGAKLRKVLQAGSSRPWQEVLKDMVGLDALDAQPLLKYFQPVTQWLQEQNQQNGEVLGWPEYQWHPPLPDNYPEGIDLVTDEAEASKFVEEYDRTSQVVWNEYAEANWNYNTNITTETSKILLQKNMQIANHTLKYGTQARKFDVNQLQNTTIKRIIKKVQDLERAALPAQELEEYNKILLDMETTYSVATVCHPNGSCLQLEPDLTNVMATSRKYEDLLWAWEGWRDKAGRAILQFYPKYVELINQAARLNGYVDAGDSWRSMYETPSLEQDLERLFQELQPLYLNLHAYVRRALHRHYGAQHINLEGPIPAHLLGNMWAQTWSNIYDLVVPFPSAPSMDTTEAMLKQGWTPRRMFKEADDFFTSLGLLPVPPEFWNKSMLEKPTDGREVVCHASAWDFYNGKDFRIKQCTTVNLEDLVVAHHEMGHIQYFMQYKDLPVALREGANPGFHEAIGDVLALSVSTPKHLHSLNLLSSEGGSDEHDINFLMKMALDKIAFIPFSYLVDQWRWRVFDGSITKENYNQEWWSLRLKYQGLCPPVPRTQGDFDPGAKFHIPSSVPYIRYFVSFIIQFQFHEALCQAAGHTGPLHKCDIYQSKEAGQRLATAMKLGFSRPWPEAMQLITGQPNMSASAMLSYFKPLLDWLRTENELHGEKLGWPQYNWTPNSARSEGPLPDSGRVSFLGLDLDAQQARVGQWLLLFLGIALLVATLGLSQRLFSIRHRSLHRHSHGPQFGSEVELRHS
# [3] = Ang-(1-7) infusion 24 μg/kg/hr for three weeks
Compound,smooth muscle cell proliferation associated with balloon-catheter injury [1],difference compared to the control group in any of the parameters measured ([2]; 10 μg/kg/hr infusion),reduction in neointimal area vs control rats ([2]; 24 μg/kg/hr infusion) [%],"endothelial function as measured in the thoracic aorta position, proximal from the stent ([2]; Ang-(1-7) infusion)","Media Area [2, 3] [mm^2]","Neointimal Thickness [2, 3] [µm]","Percentage Stenosis ([2]; Ang-(1-7) infusion 24 μg/kg/hr for three weeks, p = 0.016 vs. control) [%]","Neointimal area ([2]; Ang-(1-7) infusion 24 μg/kg/hr for three weeks, p = 0.035 vs. control)",incidence of restenosis vs placebo (ACE)
Asp Arg Val Tyr lie His Pro (DRVYIHP; listed as Homo sapiens) [Ang-(1-7)],inhibited,did not show any significant difference,27,improved endothelial function,0.40 ± 0.05,111 ± 8,10.4 ± 1.0,0.51 ± 0.05* mm^2,–
CCOC(=O)[C@H](CCc1ccccc1)N[C@H]1CCCN2CCC[C@@H](C(=O)O)N2C1=O [cilazapril],–,–,–,–,–,–,–,–,no significant differences
